Read-outs that look alike come from different tables or passages of the source.
What was measured:
[1] = system: Key Grass and Sedge Weeds as well as Grass Crops; assay: Post-emergent Test II herbicidal activity (Table 6); type: in vivo; conditions: post-emergence, 336 h; for pest or weed control at 70 g/ha: 70 g ai/ha; for pest or weed control at 140 g/ha: 140 g ai/ha
How it was run: (§1)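 Greenhouse-grown plants at first or second true leaf stage were sprayed post-emergence with compound in acetone/DMSO-based aqueous spray containing crop oil concentrate and surfactant, at 187 L/ha, highest rate plus ½× to 1/16× dilutions. After 14 d, injury was scored visually versus untreated plants, 0 (none) to 100% (complete kill).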

[2] = system: Key Broadleaf Weed and Crop Species; assay: Post-emergent Test II herbicidal activity (Table 5); type: in vivo; conditions: post-emergence, 336 h, 14 days after application; for pest or weed control at 70 g/ha: application rate 70 g ai/ha; for pest or weed control at 140 g/ha: application rate 140 g ai/ha
How it was run: as §1

[3] = CYPES: yellow nutsedge (Cyperus esculentus), read-out: Visual Growth Reduction (%) 14 Days After Application, CYPES
[4] = DIGSA: crabgrass (Digitaria sanguinalis), read-out: Visual Growth Reduction (%) 14 Days After Application, DIGSA
[5] = ECHCG: barnyardgrass (Echinochloa crus-galli), read-out: Visual Growth Reduction (%) 14 Days After Application, ECHCG
[6] = ORYSA: rice (Oryza sativa), crop, read-out: Visual Growth Reduction (%) 14 Days After Application, ORYSA
[7] = SETFA: giant foxtail (Setaria faberi), read-out: Visual Growth Reduction (%) 14 Days After Application, SETFA
[8] = SORVU: grain sorghum (Sorghum vulgare), read-out: Visual Growth Reduction (%) 14 Days After Application, SORVU
[9] = TRZSS (wheat, Triticum aestivum), crop, read-out: Visual Growth Reduction (%) 14 Days After Application, TRZSS
[10] = ZEAMX: maize, corn (Zea mays), crop, read-out: Visual Growth Reduction (%) 14 Days After Application, ZEAMX
[11] = ABUTH: velvetleaf (Abutilon theophrasti), read-out: Visual Growth Reduction (%) 14 Days After Application, ABUTH
[12] = AMARE: redroot pigweed (Amaranthus retroflexus), read-out: Visual Growth Reduction (%) 14 Days After Application, AMARE
[13] = BRSNN: oilseed-rape, canola (Brassica napus), read-out: Visual Growth Reduction (%) 14 Days After Application, BRSNN
[14] = CHEAL: lambsquarters (Chenopodium album), read-out: Visual Growth Reduction (%) 14 Days After Application, CHEAL
[15] = EPHHL: wild poinsettia (Euphorbia heterophylla), read-out: Visual Growth Reduction (%) 14 Days After Application, EPHHL
[16] = HELAN: sunflower (Helianthus annuus), read-out: Visual Growth Reduction (%) 14 Days After Application, HELAN
[17] = VIOTR: wild pansy (Viola tricolor), read-out: Visual Growth Reduction (%) 14 Days After Application, VIOTR

## Cc1ccc(-c2nc(C(=O)O)c(Cl)c(N)c2F)cc1F [Compound 212]
[1]; [3]
  pest or weed control at 70 g/ha: 0 to 29%
  pest or weed control at 140 g/ha: 30 to 44%
[1]; [4]
  pest or weed control at 70 g/ha: 0 to 29%
  pest or weed control at 140 g/ha: 30 to 44%
[1]; [5]
  pest or weed control at 70 g/ha: 75 to 84%
  pest or weed control at 140 g/ha: 85 to 94%
[1]; [6]
  pest or weed control at 70 g/ha: 60 to 74%
  pest or weed control at 140 g/ha: 60 to 74%
[1]; [7]
  pest or weed control at 70 g/ha: 45 to 59%
  pest or weed control at 140 g/ha: 75 to 84%
[1]; [8]
  pest or weed control at 70 g/ha: 60 to 74%
  pest or weed control at 140 g/ha: 75 to 84%
[1]; [9]
  pest or weed control at 70 g/ha: 60 to 74%
  pest or weed control at 140 g/ha: 60 to 74%
[1]; [10]
  pest or weed control at 70 g/ha: 75 to 84%
  pest or weed control at 140 g/ha: 85 to 94%
[2]; [11]
  pest or weed control at 70 g/ha: 95 to 100%
  pest or weed control at 140 g/ha: 95 to 100%
[2]; [12]
  pest or weed control at 70 g/ha: 95 to 100%
  pest or weed control at 140 g/ha: 95 to 100%
[2]; [13]
  pest or weed control at 70 g/ha: 95 to 100%
  pest or weed control at 140 g/ha: 95 to 100%
[2]; [14]
  pest or weed control at 70 g/ha: 95 to 100%
  pest or weed control at 140 g/ha: 95 to 100%
[2]; [15]
  pest or weed control at 70 g/ha: 95 to 100%
  pest or weed control at 140 g/ha: 95 to 100%
[2]; [16]
  pest or weed control at 70 g/ha: 95 to 100%
  pest or weed control at 140 g/ha: 95 to 100%
[2]; [17]
  pest or weed control at 70 g/ha: 0 to 29%
  pest or weed control at 140 g/ha: 0 to 29%
other
  melting point: 145 to 146 °C

## COc1c(N)nc(-c2ccc(C(F)(F)F)c(F)c2F)nc1C(=O)O [Compound 76]
[1]; [3]
  pest or weed control at 70 g/ha: 0 to 29%
  pest or weed control at 140 g/ha: 30 to 44%
[1]; [4]
  pest or weed control at 70 g/ha: 75 to 84%
  pest or weed control at 140 g/ha: 85 to 94%
[1]; [5]
  pest or weed control at 70 g/ha: 85 to 94%
  pest or weed control at 140 g/ha: 95 to 100%
[1]; [6]
  pest or weed control at 70 g/ha: 0 to 29%
  pest or weed control at 140 g/ha: 30 to 44%
[1]; [7]
  pest or weed control at 70 g/ha: 45 to 59%
  pest or weed control at 140 g/ha: 60 to 74%
[1]; [8]
  pest or weed control at 70 g/ha: 45 to 59%
  pest or weed control at 140 g/ha: 45 to 59%
[1]; [9]
  pest or weed control at 70 g/ha: 45 to 59%
  pest or weed control at 140 g/ha: 45 to 59%
[1]; [10]
  pest or weed control at 70 g/ha: 0 to 29%
  pest or weed control at 140 g/ha: 95 to 100%
[2]; [11]
  pest or weed control at 70 g/ha: 95 to 100%
  pest or weed control at 140 g/ha: 95 to 100%
[2]; [12]
  pest or weed control at 70 g/ha: 95 to 100%
  pest or weed control at 140 g/ha: 95 to 100%
[2]; [13]
  pest or weed control at 70 g/ha: 85 to 94%
  pest or weed control at 140 g/ha: 95 to 100%
[2]; [14]
  pest or weed control at 70 g/ha: 85 to 94%
  pest or weed control at 140 g/ha: 95 to 100%
[2]; [15]
  pest or weed control at 70 g/ha: 95 to 100%
[2]; [16]
  pest or weed control at 70 g/ha: 85 to 94%
  pest or weed control at 140 g/ha: 95 to 100%
[2]; [17]
  pest or weed control at 70 g/ha: 45 to 59%
  pest or weed control at 140 g/ha: 60 to 74%
other
  melting point: 169 to 170 °C

## COC(=O)c1nc(-c2ccc(C)c(F)c2F)c(F)c(N)c1Cl [Compound 211]
[1]; [3]
  pest or weed control at 70 g/ha: 45 to 59%
  pest or weed control at 140 g/ha: 60 to 74%
[1]; [4]
  pest or weed control at 70 g/ha: 0 to 29%
  pest or weed control at 140 g/ha: 0 to 29%
[1]; [5]
  pest or weed control at 70 g/ha: 45 to 59%
  pest or weed control at 140 g/ha: 85 to 94%
[1]; [6]
  pest or weed control at 70 g/ha: 0 to 29%
  pest or weed control at 140 g/ha: 0 to 29%
[1]; [7]
  pest or weed control at 70 g/ha: 45 to 59%
  pest or weed control at 140 g/ha: 60 to 74%
[1]; [8]
  pest or weed control at 70 g/ha: 0 to 29%
  pest or weed control at 140 g/ha: 30 to 44%
[1]; [9]
  pest or weed control at 70 g/ha: 0 to 29%
  pest or weed control at 140 g/ha: 0 to 29%
[1]; [10]
  pest or weed control at 70 g/ha: 30 to 44%
  pest or weed control at 140 g/ha: 45 to 59%
[2]; [11]
  pest or weed control at 70 g/ha: 95 to 100%
  pest or weed control at 140 g/ha: 95 to 100%
[2]; [12]
  pest or weed control at 70 g/ha: 95 to 100%
  pest or weed control at 140 g/ha: 95 to 100%
[2]; [13]
  pest or weed control at 70 g/ha: 60 to 74%
  pest or weed control at 140 g/ha: 85 to 94%
[2]; [14]
  pest or weed control at 70 g/ha: 95 to 100%
  pest or weed control at 140 g/ha: 95 to 100%
[2]; [15]
  pest or weed control at 70 g/ha: 95 to 100%
  pest or weed control at 140 g/ha: 95 to 100%
[2]; [16]
  pest or weed control at 70 g/ha: 95 to 100%
  pest or weed control at 140 g/ha: 95 to 100%
[2]; [17]
  pest or weed control at 70 g/ha: 0 to 29%
  pest or weed control at 140 g/ha: 0 to 29%
other
  melting point: 167 to 168 °C

Reference: patent US9113629B2, “4-amino-6-(4-substituted-phenyl)-picolinates and 6-amino-2-(4-substituted-phenyl)-pyrimidine-4-carboxylates and their use as herbicides” (DOW AGROSCIENCES LLC, priority 2013, dated 2015)
